Assays:
Format in all cases: cell-based
[1] = test system: Candida albicans ATCC10231 biofilm; experiment: Combinational effects between ionic silver and polyphosphate (FIC) on NUNC biofilms; parameters: MIC in combination (A) / MIC in combination (B): unit not given beside the values; details: 72 hour C. albicans biofilm
Method: (§1) The bacteria used in this study were Staphylococcus aureus ATCC6538, Candida albicans ATCC10231 and Pseudomonas aeruginosa ATCC9027. Pure cultures were maintained on nutrient agar at 37° C. The NUNC-TSP transferable solid phase screening system (NUNC, Roskilde, Denmark) was used to generate up to 96 reproducible biofilms in a microtitre plate. Briefly, a suspension of each bacteria was prepared in 0.9% saline solution and adjusted to a McFarland's standard no. 1.0. This bacterial suspension was then diluted 1:30 in sterile TSB and 150 μl aliquots aseptically transferred to a 96 well Calgary device. […] Biofilms were generated as described previously. […] Sigma-Aldrich, Germany) was prepared in water (40 mg/ml) and filter sterilised (0.22 μm). Concentrations of polyphosphate were prepared horizontally across the NUNC 96 well plate, whilst ionic silver was prepared vertically. […] This permitted a diverse array of drug concentration combinations to be tested in a single investigation.

[2] = test system: Pseudomonas aeruginosa ATCC9027 biofilm; experiment: as above; parameters: MIC in combination (A) / MIC in combination (B): unit not given beside the values; details: for MIC alone mg/ml (B): agent B alone; for MIC in combination (B): agent B in combination with A; for MIC alone mg/ml (A): agent A alone; for MIC in combination (A): agent A in combination with B
Method: as §1

[3] = test system: Staphylococcus aureus ATCC6538 biofilm; experiment: as above; parameters: MIC in combination (A) / MIC in combination (B): unit not given beside the values; details: 24 hour S. aureus biofilm
Method: as §1

[4] = test system: Pseudomonas aeruginosa ATCC9027 biofilm; experiment: Challenge of NUNC-TSP biofilms to polyphosphate (MIC, MBC, MBEC)
Method: (§2) The bacteria used in this study were Staphylococcus aureus ATCC6538, Candida albicans ATCC10231 and Pseudomonas aeruginosa ATCC9027. Pure cultures were maintained on nutrient agar at 37° C. The NUNC-TSP transferable solid phase screening system (NUNC, Roskilde, Denmark) was used to generate up to 96 reproducible biofilms in a microtitre plate. Briefly, a suspension of each bacteria was prepared in 0.9% saline solution and adjusted to a McFarland's standard no. 1.0. This bacterial suspension was then diluted 1:30 in sterile TSB and 150 μl aliquots aseptically transferred to a 96 well Calgary device. Plates were incubated for 24 and 72 hours and then submerged in 150 μl 0.9% saline solution to remove planktonic bacteria from the biofilm surface. A stock solution of polyphosphate (80 mg/ml) was prepared in distilled water and filter sterilised (0.22 μm). This was subsequently diluted 1:2 in triplicate across the wells in TSB to a final concentration of 0.04 mg/ml. Each well also consisted of positive controls (TSB only in absence of antimicrobial agent) and negative controls. NUNC solid phase lids were subsequently transferred to this challenge plate and incubated overnight (37° C.). Wells were visually inspected for turbidity signifying bacterial growth. The minimum inhibitory concentration was defined as the lowest concentration of polyphosphate to prevent bacterial growth. Aliquots of wells (10 μl) showing no visual signs of turbidity were transferred to fresh TSB stocks and incubated for a further 8 hours (37° C.). This allowed the determination of the minimum bactericidal concentration (MBC). Subsequent to this, challenged NUNC peg lids were transferred to a 96 well recovery plate containing TSB media only. Plates were incubated overnight and visualised for bacterial growth. This allowed the determination of the minimum biofilm eradication concentration (MBEC). Any growth in the media corresponded to planktonic bacteria seeding the media from a viable biofilm. Absence of turbidity therefore signified bacterial eradication at this respective concentration of polyphosphate.

[5] = test system: Staphylococcus aureus ATCC6538 biofilm; experiment: as above
Method: as §2

[6] = 24 hour monospecies P. aeruginosa biofilm
[7] = 24 hour monospecies S. aureus biofilm

Q: For O=[N+]([O-])[O-].[Ag+] [silver nitrate, reference compound], which “FIC (B)” value [1] is on record?
A: 0.428

Q: And the “MIC alone mg/ml (B)” value ([1]; agent B alone)?
A: 0.07 mg/mL

Q: What about the “MIC in combination (B)” value ([1]; agent B in combination with A) of the same compound?
A: 0.03

Q: What about the “FIC (B)” value ([2]; 24 hour P. aeruginosa biofilm) of the same compound?
A: 0.0625

Q: What about the “MIC alone mg/ml (B)” value ([2]; 24 hour P. aeruginosa biofilm) of the same compound?
A: 10 mg/mL

Q: And the “MIC in combination (B)” value ([2]; 24 hour P. aeruginosa biofilm)?
A: 0.625

Q: What about the “FIC (B)” value ([2]; 72 hour P. aeruginosa biofilm) of the same compound?
A: 0.1

Q: What about the “MIC alone mg/ml (B)” value ([2]; 72 hour P. aeruginosa biofilm) of the same compound?
A: 0.6 mg/mL

Q: What about the “MIC in combination (B)” value ([2]; 72 hour P. aeruginosa biofilm) of the same compound?
A: 0.07

Q: What about the “FIC (B)” value [3] of the same compound?
A: 1

Q: And the “MIC alone mg/ml (B)” value ([3]; agent B alone)?
A: 0.015 mg/mL

Q: What about the “MIC in combination (B)” value ([3]; agent B in combination with A) of the same compound?
A: 0.015

Q: What does the source list for polyphosphate?
A: MBC [4, 6]: >80000 µg/mL; MBEC [4, 6]: >80 mg/mL; MIC [4, 6]: 5000 µg/mL; MIC ([4]; 72 hour P. aeruginosa biofilm): 80000 µg/mL; MBC [5, 7]: 10000 µg/mL; MBEC [5, 7]: 40 to 80 mg/mL; MIC [5, 7]: 1250 µg/mL; MIC ([5]; 72 hour S. aureus biofilm): 20000 µg/mL; FIC (A) [1]: 0.006; MIC alone mg/ml (A) ([1]; agent A alone): 5 mg/mL; MIC in combination (A) ([1]; agent A in combination with B): 0.03; FIC (A) ([2]; 24 hour P. aeruginosa biofilm): 0.125; MIC alone mg/ml (A) ([2]; 24 hour P. aeruginosa biofilm): 5 mg/mL; MIC in combination (A) ([2]; 24 hour P. aeruginosa biofilm): 0.625; FIC (A) ([2]; 72 hour P. aeruginosa biofilm): 0.5; MIC alone mg/ml (A) ([2]; 72 hour P. aeruginosa biofilm): 80 mg/mL; MIC in combination (A) ([2]; 72 hour P. aeruginosa biofilm): 40; FIC (A) [3]: 0.012; MIC alone mg/ml (A) ([3]; agent A alone): 1.25 mg/mL; MIC in combination (A) ([3]; agent A in combination with B): 0.015

From patent US20130171224A1, “TREATMENT OF BIOFILMS” (priority 2010, published 2013)
